Entries after “also recorded” stand apart in the source; their conditions may differ. Peptide text beside a SMILES is read from it.
What was measured:
HIV-1 (NL4-3 strain) = experiment: microbe, parasite or virus in culture; assay type: cell-based; conditions: Human immunodeficiency virus 1, NL43, PBMC; 0.1 μM, PBMCs; read-out: Inhibition of HIV-1 entry (intracellular p24)
Procedure: We also performed anti-HIV-1 entry assays to investigate the potential suppression by 3 of HIV-1 infection via its entry mechanism.
The Anti-HIV-1 entry assay was performed by measuring intercellular p24 antigen. Before the infection, PBMCs (2.5 × 10^6 cells/mL) were added into 96-well plates at 100 μL/well, then co-incubated with compounds of various concentrations for 2 h. PBMCs were then washed twice with PBS and infected with the NL4-3 strain of HIV-1 at an MOI of 0.02 for 2 h at 37 °C with 5% CO2 (CO2 incubator, Eppendorf, Hamburg, Germany). After two washes with PBS (1200 rpm, 20 °C, 5 min), the cells were re-suspended in 100 µL complete medium and incubated for 24 h. Subsequently, the PBMCs were washed and resuspended in 100 µL/well lysis buffer containing 1% protease inhibitor cocktail (Sigma-Aldrich, St. Louis, MO, USA). The intercellular p24 antigen was measured according to the protocol provided with the HIV-1 ELISA kit (PerkinElmer Inc. Waltham, MA, USA).

CD4 = target: T1, CD4 (Homo sapiens, UniProt P01730); experiment: CD4 competitive binding assay (FITC anti-human CD4 antibody, SUP-T1 cells); conditions: for inhibition at 100 µM / Inhibition at 100 μM (%): inhibition of anti-human CD4 antibody binding to SUP-T1 cells; for PInhibition (Experimental Data): transformed from % inhibition at 100 μM, presented as -ln
T1 construct: endogenous in cells; host or cells: SUP-T1 cells
Procedure: We chose CD4-expressing SUP-T1 cells to perform the competitive CD4 binding assay. Non-labeled anti-human CD4 antibody (RPA-T4 clone, BioLegend, San Diego, CA, USA) was used as a positive control.
The SUP-T1 cells were cultured in RPMI1640 medium supplemented with 10% (v/v) fetal bovine serum (FBS), 100 IU penicillin, 0.1 mg/mL streptomycin, and 2 mM L-glutamine. After collecting and washing twice with fluorescence activated cell sorting (FACS) buffer (0.5% BSA, 0.05% sodium azide in PBS) by centrifugation, SUP-T1 cells were seeded in a 96-well v-bottom plate at 5 × 10^5 cells/well. The supernatant was discarded by centrifugation and the cell pellet was resuspended with 50 μL various 2× concentrations of test compounds and 50 μL fluorescein isothiocyanate (FITC) labeled anti-human CD4 antibody (RPA-T4 clone, BioLegend, San Diego, CA, USA). The plate was incubated for 40 min on ice. After incubation, the cells were washed twice with FACS buffer by centrifugation, and then resuspended with the assay buffer. The FACS buffer was added at a volume of 50 μL per well. The fluorescence (485EX/528EM) was recorded using a Synergy II plate reader (BioTek Instruments, Inc., Winooski, VT, USA). Experimental data were generated in duplicate each time, and from at least three independent experiments. The mean values of fluorescence were normalized and expressed as a percentage of the control group values. Binding curves and IC50 values were calculated by GraphPad Prism 7 (GraphPad Software Inc., La Jolla, CA, USA) and presented as the mean ± SEM.

HIV-1 = test system: HIV-1; set-up: method as in PMID 12207905; conditions: cited from earlier work
[1] = test system: HIV-1 nucleocapsid-p7 protein (NC-p7); set-up: method as in PMID 12207905; conditions: cited from earlier work
CEM-GFP cell line = experiment: CEM-GFP cell viability (CellTiter Blue); assay type: cell-based; conditions: highest concentration 25 µM
Source text: Figure 3 The competitive CD4 binding assay results of analogs of 3 (A).
We also evaluated the anti-HIV-1 infection activity of 29 using the CEM-GFP reporter cell line.

HIV-1 NL4-3 strain = experiment: Anti-HIV-1 infection assay (CEM-GFP reporter cells, GFP fluorescence); assay type: cell-based; conditions: Human immunodeficiency virus 1, NL43, HIV-1 NL4-3, 4-5 days
Source text: We performed anti-HIV-1 infection and anti-HIV-1 entry assays by measuring GFP expression and intracellular p24 antigen level. For the anti-HIV-1 infection assays, the CEM-GFP reporter cell line was used, and HIV-1 infection induced a 10- to 1000-fold increase in the relative fluorescence of the cells.
The CEM-GFP cells were obtained from the NIH AIDS program (NIH AIDS Reagent Program, Division of AIDS, NIAID, NIH: CEM-GFP Cells from Dr. Jacques Corbeil) and cultured in RPMI 1640 medium containing 10% FBS, 1% penicillin-streptomycin (Life Technologies, Carlsbad, CA, USA), 1% 200 mM L-glutamine (Mediatech-VWR, Aurora, CO, USA), and 500 µg/mL G418 (BioPioneer Inc, San Diego, CA, USA). After collecting and counting, the CEM-GFP cells were infected with HIV-1 NL4-3 strain (MOI 0.01) at 37 °C for 2–3 h, cells were then washed twice with PBS, and 10^5 cells/well were seeded into a 96-well plate in the presence of different concentrations of test compounds. After culturing at 37 °C with 5% CO2 for 4 or 5 days, the GFP fluorescence (485EX/528EM) was measured using a Synergy II microplate reader (BioTek Instruments, Inc., Winooski, VT, USA).

Structure (SMILES) | Inhibition at 100 μM (%) (CD4) | PInhibition (Experimental Data) (CD4) | other results
c1cc(CN2CCCNCCNCCCNCC2)ccc1CN1CCCNCCNCCCNCC1 [AMD3100, reference compound] |  |  | inhibition at 0.1 µM (HIV-1 (NL4-3 strain)): 57.6%
Cn1c(=O)c2c(nc(NCCNc3nc4c(c(=O)n(C)c(=O)n4C)n3C)n2C)n(C)c1=O [Compound 1] |  |  | inhibition at 100 µM (CD4): 34.2%
Nc1ccc(S(=O)(=O)c2ccc(NCN3C(=O)NC(=O)C(=O)C3=O)cc2)cc1 [Compound 2] |  |  | inhibition at 100 µM (CD4): 36.9%
N[C@@H](CSC1(c2ccc(Cl)cc2)c2ccccc2-c2ccccc21)C(=O)O [Compound 4] |  |  | inhibition at 100 µM (CD4): 22.6%
Nc1ccn([C@H]2O[C@H](CO)[C@@H]3[O][Sn]([c]4ccccc4)([c]4ccccc4)[O][C@H]32)c(=O)n1 [Compound 5] | 33.09 |  | 
Cc1cc(=O)oc2cc(O)cc(O)c12 [Compound 6] | 5.64 | 2.762 | 
CC(=O)c1c(O)c2ccccc2oc1=O [Compound 7] | 8.87 | 2.988 | 
CCCCC(=O)c1c(O)ccc2c(C)cc(=O)oc12 [Compound 8] | 12.04 | 3.136 | 
CSCCC(NC(=O)C(CC(C)C)NC(=O)CNC(=O)C(NC(=O)C(Cc1ccccc1)NC(=O)C(CCC(N)=O)NC(=O)C(CC(=O)O)NC(=O)C(CO)NC(=O)C(CCCCN)NC(=O)C1CCCN1C(=O)C(NC(=O)C(N)CC(=O)O)C(C)C)C(C)C)C(N)=O (stereo not drawn) [Compound 9] (H-DVPKSDQFVGLM-NH2; configuration not given here) | 6.40 | 2.835 | 
O=C(O)Cc1cc(=O)oc2cc(O)ccc12 [Compound 10] | 16.98 | 3.311 | 
Cc1cc(=O)oc2c(O)c(O)ccc12 [Compound 11] | 10.83 | 3.084 | 
O=c1oc2cc(O)ccc2c2c1CCCC2 [Compound 12] | 5.27 | 2.745 | 
CCC(=O)c1cc2ccc(O)cc2oc1=O [Compound 13] | 11.80 | 3.126 | 
O=c1oc2cccc(O)c2c(O)c1Cc1ccccc1 [Compound 14] | 8.47 | 2.966 | 
CC(=O)/C=C(\c1ccccc1)c1c(O)c2ccccc2oc1=O [Compound 15] | 15.80 | 3.273 | 
CCC(=O)c1c(O)c2ccccc2oc1=O [Compound 16] | 19.76 | 3.391 | 

Structure (SMILES) | Inhibition at 100 μM (%) (CD4) | PInhibition (Experimental Data) (CD4) | other results
CCCCCCCCCCCC(=O)c1c(O)c2ccccc2oc1=O [Compound 17] |  | 3.774 | 
CCCCC(=O)c1c(O)c2ccccc2oc1=O [Compound 18] |  | 3.771 | 
O=C(O)Cc1cc(=O)oc2cc(O)ccc12 [Compound 19] |  | 3.668 | 
O=C(/C=C/c1ccccc1)CCc1c(O)c2ccccc2oc1=O [Compound 20] |  | 3.874 | 
O=C(O)Cc1cccc2c(=O)cc(-c3ccccc3)oc12 [Compound 21] |  | 3.702 | inhibition at 100 µM (CD4): > 20%
Cc1ccc(-c2cc(=O)c3cccc(CC(=O)O)c3o2)cc1 [Compound 22] |  | 3.809 | 
O=C(O)CCc1cccc2c(=O)cc(-c3ccccc3)oc12 [Compound 23] |  | 3.690 | 
O=C(O)Cc1cccc2c(=O)cc(Cc3ccccc3)oc12 [Compound 24] |  | 3.920 | 
O=C(O)Cc1cccc2c(=O)cc(C3CCCCC3)oc12 [Compound 25] |  | 3.541 | 
Cc1cc(=O)c2cccc(CC(=O)O)c2o1 [Compound 26] | 18.10 | 3.344 | 
Cc1cc2c(=O)cc(-c3ccccc3)oc2c(C(=O)O)c1C [Compound 27] |  | 4.024 | 
O=C(O)/C=C/c1c2ccc(=O)c(O)c-2oc2c(O)c(O)ccc12 [Compound 28] |  | 4.566 | 
O=C(O)/C=C/c1c2ccc(=O)c(O)c-2oc2c(O)c(O)ccc12 [Compound 29] |  | 4.763 | IC50 (CD4; SUP-T1 cells, anti-human CD4 antibody competition): 14 µM; inhibition of HIV-1 infection (HIV-1): inhibit HIV-1 infection; binding to NC-p7 [1]: bind; Cytotoxicity in CEM-GFP cell line (CEM-GFP cell line): complete lack of cytotoxicity effect; also recorded: no cytotoxicity; IC50 (HIV-1 NL4-3 strain): 2 µM
Cc1cc(=O)c2c(o1)-c1c(cc(O)c(O)c1C(=O)O)OC2 [Compound 30] | 6.48 | 2.841 | 
O=c1oc2c(cc1O)oc(=O)c1cc(O)c(O)c(O)c12 [Compound 31] |  |  | inhibition at 100 µM (CD4): 16%
O=C(O)CCC(=O)c1ccc(Oc2ccccc2)cc1 [Compound 32] |  | 3.400 | 
